Where “and” joins values, the source holds several entries; their conditions need not be identical. Identical values can stand only once. Counter-ions that a name gives are not always drawn.
Legend:
[1] = Phase I clinical trial: safety and tolerability in subjects with refractory solid tumors; assay type: in vivo, human
Protocol: (§1) An open-label, dose-escalating, multiple-dose study to define the safety, tolerability and pharmacokinetics of weekly intravenous administration of (4-Methoxy-phenyl)-methyl-(2-methyl-quinazolin-4-yl)-amine hydrochloride was performed. A dosing schedule (each 4 week cycle) was performed for (4-Methoxy-phenyl)-methyl-(2-methyl-quinazolin-4-yl)-amine hydrochloride weekly for 3 weeks with no infusion on the fourth week of each cycle. Subjects with refractory solid tumors were enrolled in cohorts of 3. During Cycle 1, subjects were hospitalized during each infusion of (4-Methoxy-phenyl)-methyl-(2-methyl-quinazolin-4-yl)-amine hydrochloride and remained for observation and safety evaluation for approximately 24 hours following the end of the infusion. All subjects had continuous telemetry for 2 hours prior to infusion, for 1-2 hour infusion and for 3 hours after the end of the infusion. Any clinically significant electrocardiographic (ECG) wave form abnormality was recorded and prolongation of the monitoring period extended at the discretion of the principal investigator.
Electrocardiograms were obtained prior to starting the infusion and within 30 minutes of the end of infusion for each infusion of the first cycle. Electrocardiograms on Day 1 were obtained in triplicate 5 minutes apart.
Neurocognitive assessments were made by administration of the Mini-Mental State Examination (MMSE), the Hopkins Verbal Learning and timed Grooved Pegboard tests before administration of the intravenous infusion and approximately 24 hours of the infusion at each weekly administration of the first cycle.
On days 1, 8, and 15 of each cycle, vital signs were obtained prior to the first dose, at 15, 30, and 60 minutes after the initiation of the infusion, and at 0.5, 1, 1.5, 2, and 4 hours after the end of the intravenous infusion. Vital signs at all time points beyond the start of the intravenous infusion included heart rate, blood pressure and respirations. Temperature was measured at the end of the infusion and 4 hours later.
Individual subjects were allowed to continue on repeated weekly×3 administrations every 28 days with no dose increase provided there was no unacceptable toxicity or disease progression.
Tumor response was evaluated by response evaluation criteria in solid tumors (RECIST) criteria. To prevent sever hypersensitivity reactions due to Cremophor® EL, subjects were premedicated with oral dexamethasone (20 mg) administered approximately 12 and 6 hours before the intravenous infusion with (4-Methoxy-phenyl)-methyl-(2-methyl-quinazolin-4-yl)-amine hydrochloride, diphenhydramine (50 mg) or its equivalent administered intravenously 30-60 minutes before (4-Methoxy-phenyl)-methyl-(2-methyl-quinazolin-4-yl)-amine hydrochloride, and cimetidine (300 mg) or ranitidine (50 mg) administered intravenously 30-60 minutes before (4-Methoxy-phenyl)-methyl-(2-methyl-quinazolin-4-yl)-amine hydrochloride.

[2] = Phase I clinical trial: plasma concentrations after weekly intravenous infusion (pharmacokinetics); assay type: in vivo, human; conditions: LLOQ 1 ng/mL; for Plasma Concentrations 1 HR: 1 hr after infusion; for Plasma Concentrations 2 HR: 2 hr after infusion; for Plasma Concentrations 4 HR: 4 hr after infusion; for Plasma Concentrations 6 HR: 6 hr after infusion; for Plasma Concentrations 12 HR: 12 hr after infusion; for Plasma Concentrations 24 HR: 24 hr after infusion; for Plasma Concentrations EOI: end of infusion; for Plasma Concentrations PREDOSE: Day 15 (third weekly dose)
Protocol: as §1
Blood samples were collected prior to dosing, at the end of the infusion, and 1, 2, 4, 6, 12, and 24 hours after the infusion. This sampling schedule occurred on Days 1 and 15 with administration of the first and third doses. Samples were collected into tubes containing EDTA and stored on ice until centrifuged. The plasma was frozen at approximately −20° C. in labeled, plastic tubes, or vials, and tightly capped. The samples were shipped to Myriad Pharmaceuticals, Inc. for analysis of (4-Methoxy-phenyl)-methyl-(2-methyl-quinazolin-4-yl)-amine hydrochloride. Pharmacokinetic analysis was conducted using WinNonlin 4.0®.

[3] = Day 1, 0.3 mg/m^2 i.v., infusion 1 hr, hydrochloride
[4] = Day 1, 0.3 mg/m^2 i.v., infusion 1 hr
[5] = Day 1, 2.1 mg/m^2 i.v., infusion 1 hr, hydrochloride
[6] = Day 1, 2.7 mg/m^2 i.v., infusion 1 hr, hydrochloride
[7] = Day 1, 3.3 mg/m^2 i.v., infusion 2 hr, hydrochloride
[8] = Day 15, 0.3 mg/m^2 i.v., infusion 1 hr
[9] = Day 15, 1.0 mg/m^2 i.v., infusion 1 hr, hydrochloride
[10] = Day 15, 1.0 mg/m^2 i.v., infusion 1 hr
[11] = Day 15, 2.1 mg/m^2 i.v., infusion 1 hr, hydrochloride

## COc1ccc(N(C)c2nc(C)nc3ccccc23)cc1 [(4-Methoxy-phenyl)-methyl-(2-methyl-quinazolin-4-yl)-amine hydrochloride]
[1]; Phase 1 Trial
  bradycardia: occasional episodes of bradycardia
  dose limiting toxicity: vascular in nature, manifested by an acute coronary syndrome
  intratumor bleeding: incidences of intratumor bleeding
  systolic blood pressure: dose-related increase
[1]; Phase 1 Trial, ECG
  effects on cardiac conduction (PR, QRS or QTc): no significant effects
[1]; Phase 1 Trial, at the administered doses
  cytotoxity peripherally: no evidence of cytotoxity peripherally
[1]; Phase 1 Trial, weekly intravenous administration
  safety and tolerability: safe and tolerable
[1]; human patients
  dose ranges found to be safely tolerated: less than 3.3 mg/m^2
[2]; [3]
  Plasma Concentrations 1 HR: 1.17 ng/mL and 1.25 ng/mL
  Plasma Concentrations EOI: 1.77 ng/mL and 1.52 ng/mL and 2.43 ng/mL
[2]; [4]
  Plasma Concentrations 2 HR: BQL
  Plasma Concentrations 4 HR: BQL
  Plasma Concentrations 6 HR: BQL
  Plasma Concentrations 12 HR: BQL
  Plasma Concentrations 24 HR: BQL
[2]; Day 1, 1.5 mg/m^2 i.v., infusion 1 hr
  Plasma Concentrations 24 HR: BQL
[2]; [5]
  Plasma Concentrations 1 HR: 5.53 ng/mL and 3.75 ng/mL
  Plasma Concentrations 2 HR: 4.78 ng/mL and 3.94 ng/mL
  Plasma Concentrations 4 HR: 2.69 ng/mL and 2.41 ng/mL
  Plasma Concentrations 6 HR: 1.62 ng/mL and 1.18 ng/mL
[2]; Day 1, 2.1 mg/m^2 i.v., infusion 1 hr
  Plasma Concentrations 24 HR: BQL
[2]; [6]
  Plasma Concentrations 1 HR: 4.69 ng/mL
  Plasma Concentrations 2 HR: 4.03 ng/mL and 5.54 ng/mL
  Plasma Concentrations 4 HR: 2.33 ng/mL and 3.91 ng/mL
  Plasma Concentrations 6 HR: 1.68 ng/mL and 3.11 ng/mL
  Plasma Concentrations EOI: 10.42 ng/mL and 11.10 ng/mL and 7.52 ng/mL
[2]; [7]
  Plasma Concentrations 2 HR: 10.37 ng/mL and 8.81 ng/mL and 5.19 ng/mL
  Plasma Concentrations EOI: 8.67 ng/mL and 11.97 ng/mL and 13.37 ng/mL and 16.77 ng/mL
[2]; 0.3 mg/m^2 i.v., infusion 1 hr
  Plasma Concentrations PREDOSE: BQL
[2]; 0.6 mg/m^2 i.v., infusion 1 hr
  Plasma Concentrations PREDOSE: BQL
[2]; 1.0 mg/m^2 i.v., infusion 1 hr
  Plasma Concentrations PREDOSE: BQL
[2]; 1.5 mg/m^2 i.v., infusion 1 hr
  Plasma Concentrations PREDOSE: BQL
[2]; 2.1 mg/m^2 i.v., infusion 1 hr
  Plasma Concentrations PREDOSE: BQL
[2]; 2.7 mg/m^2 i.v., infusion 1 hr
  Plasma Concentrations PREDOSE: BQL
[2]; 3.3 mg/m^2 i.v., infusion 2 hr
  Plasma Concentrations PREDOSE: BQL
[2]; [8]
  Plasma Concentrations 2 HR: BQL
  Plasma Concentrations 4 HR: BQL
  Plasma Concentrations 6 HR: BQL
  Plasma Concentrations 12 HR: BQL
  Plasma Concentrations 24 HR: BQL
[2]; [9]
  Plasma Concentrations 1 HR: 2.51 ng/mL
  Plasma Concentrations 2 HR: 2.15 ng/mL
  Plasma Concentrations EOI: 8.27 ng/mL and 7.82 ng/mL
[2]; [10]
  Plasma Concentrations 6 HR: BQL
  Plasma Concentrations 12 HR: BQL
  Plasma Concentrations 24 HR: BQL
[2]; Day 15, 1.5 mg/m^2 i.v., infusion 1 hr, hydrochloride
  Plasma Concentrations 4 HR: 1.60 ng/mL and 1.40 ng/mL and 1.30 ng/mL
[2]; [11]
  Plasma Concentrations 1 HR: 6.21 ng/mL and 7.19 ng/mL
  Plasma Concentrations 4 HR: 3.79 ng/mL
[2]; Day 15, 3.3 mg/m^2 i.v., infusion 1 hr, hydrochloride
  Plasma Concentrations 1 HR: 9.00 ng/mL and 17.56 ng/mL and 15.17 ng/mL
